Measured values reported in patent publication US12582116B2, “Agricultural formulations” (Dow Global Technologies LLC, priority 2020, dated 2026).

Experiments:
[1] = Mutual solubility of Formula 1 solvent and water (Example 1); assay type: physicochemical; details: for solubility in water: solvent dissolved in water
Protocol: The solubility of Formula 1 Solvent A in water is measured to be 0.67 weight percent. The solubility of water in Formula 1 Solvent A is measured to be 1.44 weight percent.

[2] = Solubility of agricultural active ingredients in solvent by visual observation, Formula 1 Solvent A vs N,N-dialkyl fatty amide (Example 3)
Protocol: The N,N-dialkyl fatty amide solvent used is HALLCOMID™ M-10’, which is a N,N-dimethyldecanamide from Stepan Company (“N,N-dialkyl Fatty Amide”). The agricultural active ingredients used are bifenthrin, tebuconazole, nitrapyrin, and dicamba acid.
(§1) The solubilities are determined by visual observation using the following method. Four milliliter vials are charged with agricultural active ingredient (10 to 50 wt %) and the specified solvent (90 to 50 wt %). The vials are capped and taped to seal with electric tape. The vials are secured in a plastic container and shaken on a laboratory shaker for 12 hours at ambient laboratory temperature and humidity. After 12 hours, each sample set is evaluated for solubility of the agricultural active ingredient solid. Complete solubilization of the agricultural active ingredient is determined to be achieved if a homogeneous clear solution is observed. The formulations made with Formula 1 Solvent A represent some embodiments of agricultural formulations of the present invention.

[3] = Solubility of agricultural active ingredients in solvent by visual observation, Formula 1 Solvent A vs aromatic hydrocarbon (Example 2)
Protocol: The aromatic hydrocarbon solvent used is Aromatic 150 from Exxon Mobil Corporation (“Aromatic Hydrocarbon”). The agricultural active ingredients used are bifenthrin, tebuconazole, nitrapyrin, and dicamba acid.
as §1

[4] = in Formula 1 Solvent A (ethyl 2-furoate, Ethyl 408), shaken 12 hours at ambient laboratory temperature, visual observation, Table 3
[5] = in N,N-dialkyl Fatty Amide (HALLCOMID M-10, N,N-dimethyldecanamide), shaken 12 hours at ambient laboratory temperature, visual observation, Table 3
[6] = in Aromatic Hydrocarbon (Aromatic 150, Exxon Mobil), shaken 12 hours at ambient laboratory temperature, visual observation, Table 2
[7] = in Formula 1 Solvent A (ethyl 2-furoate, Ethyl 408), shaken 12 hours at ambient laboratory temperature, visual observation, Table 2

solubility of water in Formula 1 Solvent A ([1]; water dissolved in the solvent)	Agricultural Active Ingredient Solubility [2]	Molecule	solubility in water [1]	Agricultural Active Ingredient Solubility [2, 4]	Agricultural Active Ingredient Solubility [2, 5]	Agricultural Active Ingredient Solubility [3]	Agricultural Active Ingredient Solubility [3, 6]	Agricultural Active Ingredient Solubility [3, 7]
1.44 weight percent	–	CCOC(=O)c1ccco1 [Formula 1 Solvent A, ethyl 2-furoate]	0.67 weight percent	–	–	–	–	–
–	–	CC(C)(C)C(O)(CCc1ccc(Cl)cc1)Cn1cncn1 (centres unmarked) [Tebuconazole, tebuconazole]	–	20 wt %	30 wt %	20 wt %	<10 wt %	–
–	>50 wt %	Clc1cccc(C(Cl)(Cl)Cl)n1 [Nitrapyrin, nitrapyrin]	–	–	–	>50 wt %	–	–
–	–	COc1c(Cl)ccc(Cl)c1C(=O)O [Dicamba Acid, dicamba acid]	–	40 wt %	<10 wt %	–	<10 wt %	40 wt %
–	–	5-methyl-2-furoate	0.67 weight percent	–	–	–	–	–
–	–	Cc1c(COC(=O)[C@@H]2[C@H](/C=C(\Cl)C(F)(F)F)C2(C)C)cccc1-c1ccccc1 (racemic) [Bifenthrin, bifenthrin]	–	30 wt %	30 wt %	–	40 wt %	30 wt %
